Several values for one entry are separate records, joined by “and”; a condition that tells them apart may be missing. Equal values may be shown once. Entries after “also recorded” stand apart in the source; their conditions may differ. Read-outs that look alike come from different tables or passages of the source. Each block holds one molecule with its values, some of them ahead of it.
How the values were obtained:
[1] = tested on: non-iron-overloaded, bile duct-cannulated rats; conditions: cited from earlier work
[2] = tested on: iron-overloaded Cebus apella monkeys; conditions: po, cited from earlier work
[3] = 2:1 complex with Fe(III); cited from earlier work
rats [4] = conditions: cited from earlier work
patients = conditions: cited from earlier work
[5] = rat liver, sc 300 µmol/kg, cited from earlier work; for fraction of parent polyether cleaved to 2 (from 5) or 3 (from 6): 2 h
[6] = even when administered b.i.d.; cited from earlier work
[7] = Tissue distribution/metabolism of chelators in rats; format: in vivo, rat (male Sprague-Dawley); conditions: for concentration in kidney: rat kidney; for presence in heart: later time points (2-8 h) after 11 sc 300 µmol/kg
rats [8] = conditions: rat, cited from earlier work
[9] = tested on: non-iron-overloaded, bile duct-cannulated rats; experiment: Chelator-induced iron clearance; format: in vivo; conditions: po, 300 µmol/kg
male Sprague-Dawley rats = experiment: 10-day toxicity trial of 11 in rats; format: in vivo, rat; conditions: 384 µmol/kg/day
[10] = tested on: iron-overloaded Cebus apella monkeys; experiment: Chelator-induced iron clearance; format: in vivo; conditions: 75 µmol/kg, same animals po and sc
[11] = bile duct-cannulated rats, po, 150 µmol/kg
[12] = rat liver, 8 h after 8 sc 300 µmol/kg
[13] = rat plasma, 8 h after 8 sc 300 µmol/kg
[14] = rat heart, 0.5 h after 11 sc 300 µmol/kg
[15] = rat pancreas, 0.5 h after 11 sc 300 µmol/kg
[16] = rat plasma, 4 h after 11 sc 300 µmol/kg
[17] = rat liver, 0.5 h after 11 sc 300 µmol/kg
[18] = rat liver, 1 h after 11 sc 300 µmol/kg
[19] = rat heart, 1 h after 11 sc 300 µmol/kg
[20] = rat liver, 8 h after 11 sc 300 µmol/kg
[21] = rat pancreas, 1 h after 11 sc 300 µmol/kg

Structure (SMILES): CCCCOc1ccc(C2=N[C@@H](C(=O)O)CS2)c(O)c1 [(S)-2-(4-butoxy-2-hydroxyphenyl)-4,5-dihydro-4-thiazolecarboxylic acid]
time to deaths ([1]; 4'-butoxy analogue of 2): ≤ 24 h

Structure (SMILES): C[C@]1(C(=O)O)CSC(c2ncccc2O)=N1 [compound 1, (S)-4,5-dihydro-2-(3-hydroxy-2-pyridinyl)-4-methyl-4-thiazolecarboxylic acid]
Rodent ICE (%) ([1]; rat, po, 150 µmol/kg): 5.5 ± 3.2% | Primate ICE (%) ([2]; 150 µmol/kg, historical, ref 41 (1), ref 53 (2)): 16.1 ± 8.5% | cumulative formation constant [3]: 4 × 10^29 | renal toxicity in rats (rats [4]): unacceptable renal toxicity

Structure (SMILES): C[C@]1(C(=O)O)CSC(c2ccc(O)cc2O)=N1 [compound 2, (S)-2-(2,4-dihydroxyphenyl)-4,5-dihydro-4-methyl-4-thiazolecarboxylic acid]
tolerability in patients (patients; 5, 10, or 15 mg/kg/day once daily (s.i.d) for up to 12 weeks): well tolerated | renal toxicity in patients (increases in BUN and SCr) (patients; b.i.d. 12.5 mg/kg (25 mg/kg/d), three patients after 4-5 weeks): unacceptable renal toxicity

Structure (SMILES): COc1ccc(C2=N[C@@](C)(C(=O)O)CS2)c(O)c1 [compound 4, (S)-4,5-dihydro-2-(2-hydroxy-4-methoxyphenyl)-4-methyl-4-thiazolecarboxylic acid]
fraction of parent demethylated to 2 ([5]; 2 h post drug): about 30%

Structure (SMILES): COCCOCCOCCOc1ccc(C2=N[C@@](C)(C(=O)O)CS2)c(O)c1 [compound 5, (S)-4,5-dihydro-2-[2-hydroxy-4-(3,6,9-trioxadecyloxy)phenyl]-4-methyl-4-thiazolecarboxylic acid]
fraction of parent polyether cleaved to 2 (from 5) or 3 (from 6) [5]: 2% | renal toxicity [6]: no renal toxicity

Structure (SMILES): COCCOCCOCCOc1cccc(C2=N[C@@](C)(C(=O)O)CS2)c1O [compound 6, (S)-4,5-dihydro-2-[2-hydroxy-3-(3,6,9-trioxadecyloxy)phenyl]-4-methyl-4-thiazolecarboxylic acid]
ICE [1, 11]: 18.7 ± 2.9% | iron decorporated [1, 11]: 0.782 ± 0.121 mg/kg | quantity of iron excreted ([1]; bile duct-cannulated rats, po, 300 µmol/kg): 0.887 ± 0.367 mg/kg | fraction of parent polyether cleaved to 2 (from 5) or 3 (from 6) [5]: 2.6% | renal toxicity [6]: no renal toxicity

cleavage of the terminal methyl of 7 to alcohol 8 ([7]; rat tissues, 7 sc 300 µmol/kg): did occur | cleavage of 7 at the 4'-(HO) to 2 ([7]; rats, 7 sc 300 µmol/kg): does not sustain metabolic cleavage
Structure (SMILES): COCCOCCOc1ccc(C2=N[C@@](C)(C(=O)O)CS2)c(O)c1 [compound 7, (S)-4,5-dihydro-2-[2-hydroxy-4-(3,6-dioxaheptyloxy)phenyl]-4-methyl-4-thiazolecarboxylic acid]
Primate ICE (%) ([2]; 75 µmol/kg, as monosodium salt): 28.7 ± 12.4% | Primate ICE (%) ([2]; 75 µmol/kg, in capsules): ~ 26% and 26.3 ± 9.9% | histopathology (rats [8]; extensive tissues): no drug-related abnormalities were identified | urinary Kim-1 excretion (rats [8]; up to 28 d): did not elicit any increases

share of the drug (parent + metabolite) ([7]; rat liver, 0.5 h after 8 sc 300 µmol/kg): 53% | presence in liver [7, 12]: very little | share of total drug concentration ([7]; rat plasma, 0.5 h after 7 sc 300 µmol/kg): 5%
Structure (SMILES): C[C@]1(C(=O)O)CSC(c2ccc(OCCOCCO)cc2O)=N1 [compound 8, (S)-4,5-dihydro-2-[2-hydroxy-4-(5-hydroxy-3-oxapentyloxy)phenyl]-4-methyl-4-thiazolecarboxylic acid]
presence in plasma [7, 13]: Neither the parent 8 nor the metabolite 9 was found

share of the drug (parent + metabolite) ([7]; rat liver, 1 h after 8 sc 300 µmol/kg): 59% | presence in liver [7, 12]: no metabolite 9 remains | share of drug converted to / in the form of metabolite ([7]; rat plasma, 0.5 h after 8 sc 300 µmol/kg): ~60% | share of drug in the form of the metabolite ([7]; rat plasma, 2 h after 8 sc 300 µmol/kg): 88% | presence of carboxylic acid 9 in tissues after 7 ([7]; rat tissues, 7 sc 300 µmol/kg): not detected
Structure (SMILES): C[C@]1(C(=O)O)CSC(c2ccc(OCCOCC(=O)O)cc2O)=N1 [compound 9, (S)-4,5-dihydro-2-[2-hydroxy-4-(4-carboxy-3-oxabutyloxy)phenyl]-4-methyl-4-thiazolecarboxylic acid]
presence in plasma [7, 13]: Neither the parent 8 nor the metabolite 9 was found

Structure (SMILES): COCCCCCCOc1ccc(C2=N[C@@](C)(C(=O)O)CS2)c(O)c1 [compound 10, (S)-4,5-dihydro-2-[2-hydroxy-4-(6-methoxyhexyloxy)phenyl]-4-methyl-4-thiazolecarboxylic acid]
overt toxicity in rats ([9]; bile duct-cannulated rats): profoundly toxic; also recorded: very toxic | time of death of one of the animals post drug ([9]; bile duct-cannulated rats, remaining rodents euthanized at 24 h): ~ 22 h | time of peak drug-induced iron excretion post drug ([9]; rat): 6 h

Structure (SMILES): C[C@]1(C(=O)O)CSC(c2ccc(OCCCCCCO)cc2O)=N1 [compound 11, (S)-4,5-dihydro-2-[2-hydroxy-4-(6-hydroxyhexyloxy)phenyl]-4-methyl-4-thiazolecarboxylic acid]
overt toxicity in rats ([9]; bile duct-cannulated rats): did not present with any overt toxicity; also recorded: did not display any overt toxicity; also recorded: did not elicit any signs of overt toxicity | concentration in heart [7, 14]: 26 nmol/g wet weight | concentration in kidney ([7]; 0.5 h after 11 sc 300 µmol/kg): trace amounts | presence in liver ([7]; rat liver, any of the time points (0.5-8 h) after 11 sc 300 µmol/kg): not found | concentration in pancreas [7, 15]: < 5 nmol/g wet weight | share of the total (parent + metabolites) [7, 16]: no longer detectable | conversion of alcohol 11 to metabolites 12-14 ([7]; rats, 11 sc 300 µmol/kg): Significant conversion; also recorded: quickly converted; also recorded: very quickly converted | survival (male Sprague-Dawley rats; rat, po by gavage once daily for ten days): survived | histopathology (25 tissues/rat) (male Sprague-Dawley rats; rat, po once daily x 10 d): could not identify any drug-related abnormalities | overall toxicity (male Sprague-Dawley rats; rodents, once daily for 10 days): complete lack of toxicity

presence in cardiac tissue ([7]; rat heart, any of the time points after 11 sc 300 µmol/kg): not found | concentration in kidney ([7]; 0.5 h after 11 sc 300 µmol/kg): found | concentration in kidney ([7]; 1 h after 11 sc 300 µmol/kg): found | presence in liver ([7]; rat liver, 2, 4, or 8 h after 11 sc 300 µmol/kg): not detected | share of the total drug (parent + metabolites) [7, 17]: 11% | share of the total drug (parent + metabolites) [7, 18]: 2% | presence in pancreas ([7]; rat pancreas, any of the time points after 11 sc 300 µmol/kg): not found | presence in plasma ([7]; rat plasma, 0.5-8 h after 11 sc 300 µmol/kg): None
Structure (SMILES): C[C@]1(C(=O)O)CSC(c2ccc(OCCCCCC(=O)O)cc2O)=N1 [compound 12, (S)-4,5-dihydro-2-[2-hydroxy-4-(5-carboxypentyloxy)phenyl]-4-methyl-4-thiazolecarboxylic acid]

concentration in heart [7, 14]: ~ 46 nmol/g wet weight | concentration in heart [7, 19]: ~ 46 nmol/g wet weight | presence in heart ([7]; rat heart): not found | concentration in kidney ([7]; 0.5 h after 11 sc 300 µmol/kg): ~ 300 nmol/g wet weight | concentration in kidney ([7]; 1 h after 11 sc 300 µmol/kg): ~ 300 nmol/g wet weight | concentration in kidney ([7]; 8 h after 11 sc 300 µmol/kg): not detectable | share of the total drug (parent + metabolites) [7, 17]: 71% | share of the total drug (parent + metabolites) [7, 18]: 73% | share of the total drug (parent + metabolites) ([7]; rat liver, 2 h after 11 sc 300 µmol/kg): 66% | share of the total drug (parent + metabolites) ([7]; rat liver, 4 h after 11 sc 300 µmol/kg): 70% | presence in liver [7, 20]: no 13 remained | concentration in pancreas [7, 15]: 19 nmol/g wet weight | concentration in pancreas [7, 21]: 23 nmol/g wet weight | share of the total (parent + metabolites) ([7]; rat plasma, 0.5 h after 11 sc 300 µmol/kg): 62% | share of the total (parent + metabolites) [7, 16]: 50% | share of the total plasma drug concentration ([7]; rat plasma, 8 h after 11 sc 300 µmol/kg): 65%
Structure (SMILES): C[C@]1(C(=O)O)CSC(c2ccc(OCCCC(=O)O)cc2O)=N1 [compound 13, (S)-4,5-dihydro-2-[2-hydroxy-4-(3-carboxypropyloxy)phenyl]-4-methyl-4-thiazolecarboxylic acid]
sc ICE vs po ICE in the primates (times higher) [10]: 3.4 times

concentration in heart [7, 14]: 17 nmol/g wet weight | concentration in heart [7, 19]: 23 nmol/g wet weight | presence in heart ([7]; rat heart): not found | concentration in kidney ([7]; 0.5 h after 11 sc 300 µmol/kg): 156 nmol/g wet weight | concentration in kidney ([7]; 1 h after 11 sc 300 µmol/kg): 201 nmol/g wet weight | concentration in kidney ([7]; 2 h after 11 sc 300 µmol/kg): 161 nmol/g wet weight | concentration in kidney ([7]; 8 h after 11 sc 300 µmol/kg): 5 nmol/g wet weight | share of the total drug (parent + metabolites) [7, 17]: 18% | share of the total drug (parent + metabolites) [7, 18]: 25% | presence in liver [7, 20]: trace amounts | concentration in pancreas [7, 15]: Trace amounts | concentration in pancreas [7, 21]: Trace amounts | concentration in pancreas ([7]; rat pancreas, 2 h after 11 sc 300 µmol/kg): Trace amounts | share of the total (parent + metabolites) [7, 16]: 50%
Structure (SMILES): C[C@]1(C(=O)O)CSC(c2ccc(OCC(=O)O)cc2O)=N1 [compound 14, (S)-4,5-dihydro-2-[2-hydroxy-4-(carboxymethoxy)phenyl]-4-methyl-4-thiazolecarboxylic acid]
sc ICE vs po ICE in the primates (times higher) [10]: 5.3 times

From PMC4608554 (Bioorganic & medicinal chemistry, 2015)
